Data as given in PubChem BioAssay AID179 (DTP/NCI, 2004).
Calls of active or inactive are those of the source.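 Rule for the calls: active = compounds giving half or more protection of infected cells from virus-caused growth loss, again on retest; inactive = the rest.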 Where a SMILES comes first, the peptide text is derived from it.

System: CEM cells HIV-1 protection, formazan growth assay
Test: NCI AIDS Antiviral Assay
Conditions: for IC50: measured here: growth of uninfected CEM cells
Outline: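 Protection of CEM cells against HIV-1 measured as cell growth via soluble formazan read-out, with five concentrations tested on both infected and uninfected cells; failure to protect may reflect toxicity.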

Structure (SMILES)	EC50 [µM]	IC50 [µM]	outcome
COc1oc(C(=O)NC2CCCCC2)c(-c2ccc(Cl)cc2)c1S(=O)(=O)c1ccccc1	> 200	9.77	–
O=Cc1cn(CCCCCn2cc(C=O)c3ccccc32)c2ccccc12	> 200	> 200	–
CC(=O)C(N=Nc1nccs1)C(C)=O	> 200	55	–
CN(C)c1cccc2c(S(=O)O)cccc12	> 200	> 200	–
O=C1/C(=C/c2ccc([N+](=O)[O-])cc2)CCCc2ccccc21	> 141	> 141	–
CN(C)C(=O)Nc1cc2c3c(c1)CCCN3CCC2	81.3	174	–
COC(=O)C(NC(=O)c1ccccc1)C(c1ccc(Cl)cc1)P(=O)(OC)OC (stereo unspecified)	> 309	> 309	–
O=c1[nH]c(=O)n(C2CC(F)C(CO)O2)cc1COCC(F)(F)F (stereo unspecified)	0.17	204	–
CCOc1ccc(N=O)c(O)c1	> 200	3.98	–
C=CCC(CCC(C)=O)(C(=O)OCC)C(=O)OCC	> 200	> 200	–
OCC(O)C1OC(c2ccco2)OC(CO)C1O (stereo unspecified)	> 200	> 200	–
O=[N+]([O-])c1cc(I)cc(/C=N/NS(=O)(=O)c2ccc(Cl)cc2)c1O	> 372	66.1	–
CC(C)(Cc1ccccc1)N1C(=O)N1C(C)(C)Cc1ccccc1	> 200	28.8	–
CC(NC(=O)Cc1ccccc1)NC(=O)C(C)C(=O)NCc1ccccc1 (stereo unspecified)	–	–	inactive
C1=CN2C(c3ccccc3)=NON(c3ncccn3)C2N=C1 (stereo unspecified)	> 46.8	> 46.8	–
CC1=CC(=O)c2c(O)cccc2C1=O	> 2	0.912	–
COC(=O)c1ccc(N=NN(C)COc2ccc(C#N)cc2)cc1	> 200	81.3	–
CC1(C)CC(=O)C(=[N+]=[N-])C(=O)C1	> 200	> 200	–
CC(=O)OCC1OC(n2c3c(c(-c4ccc(C)cc4)c(C#N)c2=S)C(=O)CC(C)(C)C3)C(OC(C)=O)C(OC(C)=O)C1OC(C)=O (stereo unspecified)	> 200	16.6	–
COc1ccc(C2=C/C(=C/c3ccc(O)cc3O)C(=O)O2)cc1	> 200	36.3	–
O=C1c2cc3c(cc2NC(c2ccccc2F)C1O)OCO3 (stereo unspecified)	> 200	12	–
CCC(=O)CC(=O)CCC(=O)Nc1cc(C)ccc1C	–	–	inactive

Structure (SMILES)	EC50 [µM]	IC50 [µM]	outcome
CS/C1=C(\c2ccc(C)cc2)N(c2ccccc2)C(=O)C(=O)N(c2ccccc2)/C(c2ccc(C)cc2)=C(/SC)SS1	> 200	47.9	–
CC(O)CC(O)(C(F)(F)F)C(F)(F)F (stereo unspecified)	> 200	> 200	–
N#C/C=C/c1ccc(C#N)cc1	> 64.6	> 64.6	–
O=C(O)CN(CC(=O)O)C1CCCCC1N(CC(=O)O)CC(=O)NCCN=C=S (stereo unspecified)	> 200	> 200	–
CC(=O)NC(C(=O)NC(C)C(=O)N1CCCC1C(=O)O)C(C)C (stereo not drawn) (Ac-Val-Ala-Pro-OH; configuration not given here)	> 200	> 200	–
CN(C)CCCNC(=O)CCNC(=O)c1cc(NC(=O)c2cc(NC(=O)c3cc(NC(=O)c4nccn4C)cn3C)cn2C)cn1C	> 200	17	–
CCc1c([N+](=O)[O-])cc2c(c1[N+](=O)[O-])C(C)(C)CCC2C (stereo unspecified)	> 200	14.5	–
C#C[C@]1(O)CC[C@H]2[C@@H]3CCC4=C/C(=N/OC(=O)c5cccc6c(=O)c7ccccc7[nH]c56)CC[C@@H]4[C@H]3CC[C@@]21C	> 200	30.9	–
C/C(=C\c1ccc(N(C)C)cc1)C(=O)O	> 66.1	> 66.1	–
Clc1ccc2c(c1)N(CCCN1CCCC13CCCCC3)c1ccccc1S2	> 200	102	–
CC(C)(c1ccccc1)c1ccc(Oc2ccc(C#N)c(C#N)c2)cc1	> 29.5	28.8	–
NC(=S)N/N=C1\CCCc2ccccc21	> 162	81.3	–
O=[N+]([O-])c1cccc(C2=NC(=S)NC(c3cc(Cl)ccc3O)C2)c1 (stereo unspecified)	> 200	141	–
Cc1cn(C2C=CC(=O)C(C)O2)c(=O)[nH]c1=O (stereo unspecified)	> 1050	6.31	–
COc1ccc(N2C(=O)C3CC(c4ccc(C)cc4)c4c([nH]c5ccccc45)C3C2=O)cc1 (stereo unspecified)	> 2.4	> 2.4	–
COC(=O)C1=C(N)C2=C(N)Oc3ccccc3C2CC1=C(C#N)C#N (stereo unspecified)	> 200	47.9	–
O=C(NCCCl)c1ccc(Cl)c(Cl)c1	–	–	inactive
C=C(O)c1ccccc1C#Cc1ccccc1C(=O)OC	> 200	> 100	–
O=C1CC(CC(O)C(O)CO)CC(=O)N1 (stereo unspecified)	> 200	> 200	–
COc1ccc2c(c1)OC1c3ccccc3OCC21 (stereo unspecified)	–	–	inactive
O=C(O)CCCc1ccc2c(c1)CC1(C2)Cc2ccc(CCCC(=O)O)cc2C1	> 200	141	–
CN(C)CCCNC(=O)c1c(O)c2ccccc2n(C)c1=O	> 200	79.4	–

Structure (SMILES)	EC50 [µM]	IC50 [µM]	outcome
CC(C)CCCC(C)[C@H]1CC[C@@H]2[C@H]3CC[C@H]4C[C@@H](CCC=C(c5cc(Cl)c(OCc6cccc([N+](=O)[O-])c6)c(C(=O)O)c5)c5cc(Cl)c(OCc6cccc([N+](=O)[O-])c6)c(C(=O)O)c5)CC[C@]4(C)[C@@H]3CC[C@]12C (stereo partly specified)	> 200	> 200	–
Cn1c(-c2cccs2)cc(-c2ccsc2)c1-c1cccs1	–	–	inactive
O=C(/C=C/c1ccccc1)Oc1ccc(C(=O)/C=C/c2ccc(Cl)cc2)cc1	> 100	44.7	–
COC(=O)c1cc(C(=CCCN)c2cc(Cl)c(OC)c(C(=O)OC)c2)cc(Cl)c1OC	> 200	8.71	–
C=C(OC1C(C)=C2C(C1OC(=O)CCCCCCC)C(C)(OC(C)=O)CC(OC(=O)CCC)C1(O)C2OC(=O)C1(C)O)/C(C)=C/C (stereo unspecified)	> 2	0.00282	–
CC1C(c2ccccc2)=Nn2c(=O)n(-c3ccccc3)c(=O)n21 (stereo unspecified)	> 200	> 200	–
O=C1NC(=O)C2(CCCCCC2)N1	> 200	> 200	–
CCOC(=O)/N=c1/nc(N(C)C)ss1	–	–	inactive
COc1ccc(C(=O)N2CCc3c([nH]c4ccccc34)C2C(=O)O)o1 (stereo unspecified)	> 39.8	17.4	–
CCCN(CCC)CCCOC(=O)c1ccc2oc3ccc(C(=O)OCCCN(CCC)CCC)cc3c2c1	> 112	6.61	–
COc1cc(C2(C#N)CCN(C)CC2)cc(OC)c1OC	> 871	437	–
COc1ccc(CCCN2c3ccccc3Sc3ccccc32)cc1	> 10.7	> 10.7	–
Cn1cc(NC(=O)[C@@H]2CCC(N)=N2)cc1C(=O)NCCC(=N)N	–	–	inactive
C[N+](C)(C)C=Nc1cccc2c1CCCC2	> 200	–	–
Cc1ccnc(NS(=O)(=O)c2ccc(NC(=O)Nc3ccc(Cl)c(C(F)(F)F)c3)cc2)n1	–	–	inactive
NC(CCSSCCC(N)P(=O)(O)O)P(=O)(O)O (stereo unspecified)	> 200	> 200	–
COc1cc2c3c(c1OC)-c1[nH]c4ccccc4c1C1CCCN(CC2)C31 (stereo unspecified)	> 138	15.1	–
CSC1=Nc2ccccc2N=C(N2CCCC2)C1	4.47	> 200	–
Cn1cc(S(=O)(=O)NC(=O)Nc2ccc(Cl)cc2)c(=O)c2ccc(F)cc21	–	–	inactive
O=C/C(=C(/Cl)c1ccc(O)cc1)c1ccccc1	> 115	49	–
CN1CN(c2ccccc2)C2(CCN(C(=O)OC(C)(C)C)CC2)C1=O	> 100	> 100	–
OCCOc1ccc(-c2cc(-c3ccccn3)nc(-c3ccccn3)c2)cc1	> 3.72	0.646	–

Structure (SMILES)	EC50 [µM]	IC50 [µM]	outcome
O=C1CC2C=C(S(=O)(=O)c3ccccc3)C1N(Cc1ccccc1)C2=O (stereo unspecified)	–	–	inactive
OCCCCCCOc1ccc(-c2cc(-c3ccccn3)nc(-c3ccccn3)c2)cc1	> 12.3	1.91	–
O=C(c1ccccc1)C1(c2ccccc2)SSC1(C(=O)c1ccccc1)c1ccccc1 (stereo unspecified)	> 100	> 100	–
NC(=O)N=C(N(Cc1ccccc1)Cc1ccccc1)N(Cc1ccccc1)Cc1ccccc1	> 7.59	2.24	–
CN(C)C(=S)Nc1ccc(Cl)cc1	> 200	52.5	–
CCOP(=O)(OCC)/C(F)=C/c1ccc(F)cc1	–	–	inactive
CC(C)(SSC(C)(C)C1NC(=O)NC1=O)C1NC(=O)NC1=O (stereo unspecified)	> 200	120	–
O=S(=O)(O)SCCCNCCCCCCNCCCSS(=O)(=O)O	> 200	129	–
COc1ccc2c(c1)-c1nc(=S)n(CCN(C)C)c3ccc([N+](=O)[O-])c(c13)N2	> 2	0.389	–
N#Cc1cc([N+](=O)[O-])ccc1NC(=O)/C(=N/N)C(C(=O)c1ccc(Cl)c(Cl)c1)C1OC(=O)c2ccccc21 (stereo unspecified)	> 64.6	> 64.6	–
CN(C)c1ccc(/C=C/C(=O)C(C)(C)C)cc1	–	–	inactive
O=C1/C(=C/c2ccccc2)CCCC/C1=C\c1ccccc1	> 6.92	> 6.92	–
CCOC(=O)C(COS(C)(=O)=O)(COS(C)(=O)=O)C(=O)OCC	> 251	209	–
OC1C2CCC3C2CC(C(O)(c2ccccc2)c2ccccc2)C13 (stereo unspecified)	> 200	79.4	–
CCCCCCCCCCCCCCCC[N+](C)(C)Cc1ccccc1	> 200	3.31	–
N#C/C(=C/n1c(=S)[nH]c2ccc([N+](=O)[O-])cc21)c1ccc([N+](=O)[O-])cc1	> 200	117	–
C/C(=C\CCC1=CC(=O)OC1)CC[C@@H]1[C@H]2C(=O)CC(C)[C@@]3(C)CC[C@]1(C)[C@@]23C (stereo partly specified)	> 200	34.7	–
Oc1c(C(Nc2cccc3cccnc23)c2ccccc2)ccc2cccnc12 (stereo unspecified)	> 3.8	0.933	–
CN(C)CCCN1CCC2(CCSCC2)C1	> 186	87.1	–
COC(=O)C(Cc1nc2ccc(Cl)cc2[nH]c1=O)/C(=N\N)C(=O)Nc1cc(C)c(Cl)cc1S(=O)(=O)O (stereo unspecified)	> 447	115	–
CCOC(=O)c1cc2cc(C)cc(C(=O)c3ccc([N+](=O)[O-])cc3)c2[nH]1	> 200	> 200	–
